Test system: Clostridium difficile
Test: Phase 3 randomized, double-blind clinical trials of 10-day treatment of C. difficile infection: recurrence rate
Format: in vivo, human
Details: 10-day oral treatment (fidaxomicin 200 mg bid, vancomycin 125 mg qid), relapse out to 4 weeks after end of treatment
Protocol: Subjects with mild to moderate C. difficile, males and females aged […] with >3 diarrheal (liquid or unformed) stools/day and with a positive enzyme immunoassay for C. difficile toxin or cell cytotoxicity assay and no more than 24 hours of prior treatment for C. difficile were eligible for enrollment. Only subjects with a primary episode or first relapse of disease were eligible. […] Subjects with ileus, WBC >30×10^9/L, toxic megacolon, or concern about life-threatening CDI were excluded from study entry. Subjects with severe underlying disease who were not expected to survive for 72 hours regardless of cause, who had had more than a single occurrence within 3 months, or who had Crohn's disease or ulcerative colitis were also excluded. […] They were evaluated for clinical cure at end of therapy and relapse out to 4 weeks following the end of treatment.

[1] = Stratum: Single Prior Episode of CDI (recurring CDI)

Compound | Recurrence Rate [1] | Recurrence Rate (Stratum: Single Prior Episode of CDI (recurring CDI), listed as vancomycin) [%] | Recurrence Rate (Stratum: No Prior Episode of CDI) | Recurrence Rate (Stratum: Single Prior Episode of CDI (recurring CDI), listed as fidaxomicin) [%]
CN[C@H](CC(C)C)C(=O)N[C@H]1C(=O)N[C@@H](CC(N)=O)C(=O)N[C@H]2C(=O)N[C@H]3C(=O)N[C@H](C(=O)N[C@H](C(=O)O)c4cc(O)cc(O)c4-c4cc3ccc4O)[C@H](O)c3ccc(c(Cl)c3)Oc3cc2cc(c3O[C@@H]2O[C@H](CO)[C@@H](O)[C@H](O)[C@H]2O[C@H]2C[C@](C)(N)[C@H](O)[C@H](C)O2)Oc2ccc(cc2Cl)[C@H]1O [Vancomycin, reference compound] | 22/62 (35.5%) | 35.5 |  | 
CCc1c(Cl)c(O)c(Cl)c(O)c1C(=O)O[C@H]1[C@H](O)[C@H](OC)[C@H](OC/C2=C\C=C\C[C@H](O)/C(C)=C/[C@H](CC)[C@@H](O[C@@H]3OC(C)(C)[C@@H](OC(=O)C(C)C)[C@H](O)[C@@H]3O)/C(C)=C/C(C)=C/C[C@@H]([C@@H](C)O)OC2=O)O[C@@H]1C [Fidaxomicin] | 13/66 (19.6%) |  | 38/325 (11.6%) | 19.6

Reference: patent publication US20140315838A1, “Methods of Treating Recurring Bacterial Infection” (Optimer Pharmaceuticals, Inc., priority 2010, published 2014)
